# Test results as given in patent US5716627A, “Skin care compositions containing fatty acid amides, azoles, and retinol or retinyl ester” (Elizabeth Arden Co., Division of Conopco, Inc., priority 1996, dated 1998).
# Entries after “also recorded” stand apart in the source; their conditions may differ. Read-outs that look alike come from different tables or passages of the source.
# Legend:
# Human keratinocytes = assay: 3H-thymidine incorporation by cultured keratinocytes (keratinocyte proliferation); type: cell-based; conditions: for activation at 0.0025 µM: 2.5×10^-9 M RA
# Protocol: Human keratinocytes, isolated from neonatal foreskin by trypsin treatment were grown in Dulbecco Modification Eagle (DME) Hams F12 (1:1) medium/10% fetal calf serum in the presence of irradiated 3T3 mouse fibroblasts for establishing dividing keratinocyte colonies. Cells were grown under the above condition until their second passage and kept frozen for future use. […] On day 7, when the cells were 80-90% confluent, they were trypsinized and plated in the serum-free medium for the various experiments.
# The incorporation of ^3 H-thymidine by cultured keratinocytes was used as an assay of keratinocyte proliferation. Thymidine is one of four deoxynucleosides which are the monomeric units of DNA, the universal library of genetic information in the animal kingdom. Prior to cell division of a somatic cell such as a keratinocyte, the complete genome of the cell undergoing cell division is replicated. This involves large scale DNA synthesis by the cell and enables both daughter cells to receive identical copies of the genetic material. When ^3 H-thymidine is included in the culture media of keratinocytes which are synthesizing DNA in preparation for cell division then the labelled nucleoside is incorporated into the newly synthesized DNA. The extent of incorporation of ^3 H-thymidine into a population of cells is proportional to the rate of DNA synthesis by this population of cells and therefore an indication of their cellular proliferation.
# Keratinocytes (that were cultured as described above) were plated in 24 well plates at a density of 40,000 cells per well in 1 ml media. After incubation for four days or until the cells were 60-70% confluent, the media was changed. Test compounds were added (in triplicate) to the wells 24 hours after the media change, and four hours later 1 μCi ^3 H-Thymidine in 50 μl media was added per well. Cells were incubated for a further 24 hours. Media was removed from the cells, 10% ice cold trichloroacetic acid (TCA) added and plates were incubated on ice for 30 minutes. Cells were washed five times with 5% TCA and allowed to dissolve in 500 μl 0.1M NaOH for at least one hour (usually overnight). The preparations were neutralized with 0.1M HCl; 50 μl of the cell preparation was used to determine total protein content. Disintegrations per minute (DPM) from ^3 H labelling of DNA was determined by liquid scintillation counting of 900 μl of the cell preparation. Thymidine incorporation results were expressed as DPM/μg protein.
# TGase I = assay: Transglutaminase (TGase I) ELISA in cultured keratinocytes, normalized to DNA content (keratinocyte differentiation); type: cell-based, human; conditions: for Mean TGase/DNA X 10^-4 ± S.D.: n = 3; for mean TGase/DNA × 10^4 ± s.d: Table 3B
# Protocol: Human keratinocytes, isolated from neonatal foreskin by trypsin treatment were grown in Dulbecco Modification Eagle (DME) Hams F12 (1:1) medium/10% fetal calf serum in the presence of irradiated 3T3 mouse fibroblasts for establishing dividing keratinocyte colonies. Cells were grown under the above condition until their second passage and kept frozen for future use. Frozen second passage keratinocytes were thawed and plated into the above medium and grown for five days before they were switched to a serum-free MCDB 153-based medium keratinocyte growth medium (KGM) from Clonetics Corporation, San Diego, Calif., containing 0.15 mM Ca, or keratinocyte serum-free media (KSFM) from GIBCO containing 0.09 mM Ca). On day 7, when the cells were 80-90% confluent, they were trypsinized and plated in the serum-free medium for the various experiments.
# During the process of terminal differentiation in the epidermis, a 15 nm thick layer of protein, known as the cornified envelope (CE) is formed on the inner surface of the cell periphery. The CE is composed of numerous distinct proteins which have been cross-linked together by the formation of N^ε -(γ-glutamyl) lysine isodipeptide bonds catalyzed by the action of at least two different transglutaminases (TGases) expressed in the epidermis. TGase I is expressed in abundance in the differentiated layers of the epidermis, especially the granular layer, but is absent in the undifferentiated basal epidermis. Thus TGase I is a useful marker of epidermal keratinocyte differentiation with high TGase I levels indicating a more differentiated state. An ELISA based TGase I assay, using a TGase I antibody, was used to assess the state of differentiation of the cultured keratinocytes in the examples that follow.
# Keratinocytes (cultured as described above) were plated in 96 well plates at a density of 3,000 cells per well in 200 μl media. After incubation for four days the media was changed to media containing test compounds (six replicates per test). The cells were cultured for a further 72 hours after which time the media was aspirated and the plates stored at -70° C. Plates were removed from the freezer, and the cells washed with PBS. 100 μl sterile water was added and the cells were freeze fractured by freezing at -70° C. then thawing. The cells were incubated for one hour at room temperature (R/T) with PBS/3% BSA (wash buffer, bovine serum albumin), then rinsed with a fresh aliquot of wash buffer. Cells were incubated with 50 μl of primary antibodies monoclonal anti-human transglutaminase (IgG) obtained from Amersham (mouse) diluted 1:300 in wash buffer for one hour, 37° C. then rinsed two times with wash buffer. Cells were then incubated with 50 μl of secondary antibody (Feb fragment, peroxidase conjugated anti-mouse IgG obtained from Amersham) diluted 1:200 in wash buffer for one hour at 37° C., then rinsed two times with wash buffer. Cells were incubated with substrate solution (4 mg o-phenylene diamine and 3.3 μl 30% H2 O2 in 10 ml 0.1M citrate buffer pH 5.0) for five minutes, R/T, in darkness (under aluminum foil). The reaction was stopped by the addition of 50 μl 4N H2 SO4. The absorbance of samples was read at 492 nm in the plate reader. Out of the six replicates, four were treated with both antibodies, two were treated only with the secondary antibody (i.e., to determine background binding of enzyme conjugated Ab). TGase levels were determined by subtracting background from the readings from each treatment and determining mean ±s.d. for the replicates exposed to both Ab.
# The level of TGase-1 detected after treatment of the cells could be influenced by cell number, i.e., the greater the number of cells the greater the level of TGase-1 detected. The level of TGase-1 was normalized to DNA content of the cells in the same well thus eliminating variation due to differences in cell number. […]
# [1] = Examples 1-4, overall conclusion
smiles,measurement,setting,value
"CC1=C(/C=C/C(C)=C/C=C/C(C)=C/C(=O)O)C(C)(C)CCC1 [RA, retinoic acid]",effect on keratinocyte proliferation (in words),"Human keratinocytes; Example 1, 2.5×10^-7 M, 2.5×10^-8 and 2.5×10^-9 M, vs ethanol control and retinol","significantly increased keratinocyte proliferation over both the ethanol control and each of the 2.5×10^-7 M, 2.5×10^-8 M and 2.5×10^-9 M retinol treatments; also recorded: dose dependant manner"
same,effect on keratinocyte proliferation (in words),Human keratinocytes; [1],increased keratinocyte proliferation
same,activity at 0.25 µM,"Human keratinocytes; Homo sapiens, Keratinocyte, 24 h, Table 1A, 2.5 × 10^-7 M, 24 hours, read-out: Thymidine incorporation (% control)",118%
same,activity at 0.025 µM,"Human keratinocytes; Homo sapiens, Keratinocyte, 24 h, Table 1A, 2.5 × 10^-8 M, 24 hours, read-out: Thymidine incorporation (% control)",128%
same,activity at 0.0025 µM,"Human keratinocytes; Homo sapiens, Keratinocyte, 24 h, Table 1A, 2.5 × 10^-9 M, 24 hours, read-out: Thymidine incorporation (% control)",122%
same,activity at 0.0025 µM,"Human keratinocytes; Homo sapiens, Keratinocyte, 24 h, Table 2A, 2.5 × 10^-9 M RA or ROH, with 10^-8 M LADEA and/or 10^-9 M Bifonazole where named, 24 hours, read-out: Thymidine incorporation (% control)",127%
same,activity at 0.25 µM,"Human keratinocytes; Homo sapiens, Keratinocyte, 24 h, Table 3A, RA at 2.5 × 10^7 M [sic], read-out: Thymidine incorporation (% control)",130%
same,activation at 0.0025 µM,"Human keratinocytes; Homo sapiens, Keratinocyte, read-out: increase in keratinocyte thymidine incorporation / proliferation over the ethanol control, Example 2, or 2.5×10^-9 M retinol+10^-8 M linoleamide-DEA+10^-9 M bifonazole",27%
same,activation at 0.25 µM,"Human keratinocytes; Homo sapiens, Keratinocyte, read-out: increase in keratinocyte thymidine incorporation / proliferation over the ethanol control, Example 3, 2.5×10^-7 M RA, or 2.5×10^-8 M retinol+10^-8 M linoleamide-DEA+10^-9 M climbazole",30%
same,activation at 0.0025 µM,"Human keratinocytes; Homo sapiens, Keratinocyte, read-out: increase in keratinocyte thymidine incorporation / proliferation over the ethanol control, Example 4, or 2.5×10^-9 M retinol+10^-8 M linoleamide-MEA+10^-8 M clotrimazole",28%
same,mean Thymidine incorp./μg protein ± s.d,"Human keratinocytes; Table 1A, 2.5 × 10^-7 M, 24 hours, n = 3",2475 ± 116 DPM/μg protein
same,mean Thymidine incorp./μg protein ± s.d,"Human keratinocytes; Table 1A, 2.5 × 10^-8 M, 24 hours, n = 3",2686 ± 72 DPM/μg protein
same,mean Thymidine incorp./μg protein ± s.d,"Human keratinocytes; Table 1A, 2.5 × 10^-9 M, 24 hours, n = 3",2556 ± 80 DPM/μg protein
same,mean Thymidine incorp. μg protein ± s.d,"Human keratinocytes; Table 2A, 2.5 × 10^-9 M RA or ROH, with 10^-8 M LADEA and/or 10^-9 M Bifonazole where named, 24 hours, n = 3",5569 ± 248 DPM/μg protein
same,mean Thymidine incorp/μg protein ± s.d,"Human keratinocytes; Table 3A, RA at 2.5 × 10^7 M [sic], n = 3",4845 ± 95 DPM/μg protein
same,effect on transglutaminase level / keratinocyte differentiation (in words),"TGase I; Example 1, 2.5×10^-7 M, 2.5×10^-8 M and 2.5×10^-9 M",decreased keratinocyte differentiation over both the ethanol control and each of the retinol treatments; also recorded: dose dependent
same,effect on keratinocyte TG1 level / differentiation (in words),"TGase I; Example 2, 2.5×10^-8 M RA or retinol, 10^-8 M LAMEA, 10^-8 M bifonazole, 72 hour",very effective at repressing keratinocyte TG1 levels
same,effect on keratinocyte TG1 level / differentiation (in words),"TGase I; Example 3, 2.5×10^-7 M RA, 2.5×10^-9 M retinol with 10^-8 M LADEA and/or climbazole, 72 hour",very effective at repressing keratinocyte TG1 levels
same,effect on keratinocyte differentiation (in words),TGase I; [1],decreased keratinocyte differentiation
same,TGase/DNA (% Control),"TGase I; Table 1B, 2.5 × 10^-7 M, 72 hours, 0.25 µM",7%
same,Mean TGase/DNA X 10^-4 ± S.D.,"TGase I; Table 1B, 2.5 × 10^-7 M, 72 hours",0.16 ± 0.11 X 10^-4
same,TGase/DNA (% Control),"TGase I; Table 1B, 2.5 × 10^-8 M, 72 hours, 0.025 µM",55%
same,Mean TGase/DNA X 10^-4 ± S.D.,"TGase I; Table 1B, 2.5 × 10^-8 M, 72 hours",1.34 ± 0.40 X 10^-4
same,TGase/DNA (% Control),"TGase I; Table 1B, 2.5 × 10^-9 M, 72 hours, 0.0025 µM",77%
same,Mean TGase/DNA X 10^-4 ± S.D.,"TGase I; Table 1B, 2.5 × 10^-9 M, 72 hours",1.87 ± 0.49 X 10^-4
same,TGase/DNA (% Control),"TGase I; Table 2B and Example 2B text, 2.5×10^-8 M RA or retinol, 10^-8 M LAMEA, 10^-8 M bifonazole where named, 72 hour",13%
same,mean TGase/DNA × 10^-4 ± s.d,"TGase I; Table 2B, 2.5 × 10^8 M [sic] RA or ROH, 10^8 M LA-MEA, 10^8 M Bifonazole where named, 72 hour, n = 6",0.017 ± 0.010 × 10^-4
same,TGase/DNA (% Control),"TGase I; Table 3B and Example 3B, 2.5×10^-9 M RA or ROH, with 10^-8 M LADEA and/or 10^-8 M climbazole where named, 72 hour",55%
same,TGase/DNA (% Control),"TGase I; Table 3B and Example 3B, RA at 2.5×10^-7 M (table: 2.5 × 10^7 M), 72 hour, 0.25 µM",29%
same,mean TGase/DNA × 10^4 ± s.d,"TGase I; 2.5 × 10^9 M [sic] RA or ROH, with 10^8 M LA-DEA and/or 10^8 M Climbazole where named, 72 hour, n = 6",0.84 ± 0.59 × 10^4
same,mean TGase/DNA × 10^4 ± s.d,"TGase I; RA at 2.5 × 10^7 M [sic], 72 hour, n = 6",0.44 ± 0.71 × 10^4
